# Data: ChEMBL document CHEMBL3862012, “Methylene versus carbonyl bridge in the structure of new tubulin polymerization inhibitors with tricyclic A-rings” (Bioorg Med Chem, 2016)
# How the values were obtained:
# [1] = species on record: Ovis aries; experiment: Inhibition of sheep brain tubulin polymerization at 100 uM by DAPI staining-based fluorimetric method relative to control
# [2] = Cytotoxicity against human CCRF-CEM cells assessed as growth inhibition at 10 uM after 48 hrs by SRB assay relative to control; format: functional; details: read-out: GI
# [3] = Cytotoxicity against human HL-60(TB) cells assessed as growth inhibition at 10 uM after 48 hrs by SRB assay relative to control; format: functional; details: HL-60, 48 h, read-out: GI
# [4] = Cytotoxicity against human A549 cells assessed as growth inhibition at 10 uM after 48 hrs by SRB assay relative to control; format: functional; details: A549, 48 h, read-out: GI
# [5] = Cytotoxicity against human EKVX cells assessed as growth inhibition at 10 uM after 48 hrs by SRB assay relative to control; format: functional; details: read-out: GI
# [6] = Cytotoxicity against human HOP62 cells assessed as growth inhibition at 10 uM after 48 hrs by SRB assay relative to control; format: functional; details: HOP-62, 48 h, read-out: GI
# [7] = Cytotoxicity against human NCI-H23 cells assessed as growth inhibition at 10 uM after 48 hrs by SRB assay relative to control; format: functional; details: NCI-H23, 48 h, read-out: GI
# [8] = Cytotoxicity against human NCI-H322M cells assessed as growth inhibition at 10 uM after 48 hrs by SRB assay relative to control; format: functional; details: read-out: GI
# [9] = Cytotoxicity against human NCI-H460 cells assessed as growth inhibition at 10 uM after 48 hrs by SRB assay relative to control; format: functional; details: NCI-H460, 48 h, read-out: GI
# [10] = Cytotoxicity against human NCI-H522 cells assessed as growth inhibition at 10 uM after 48 hrs by SRB assay relative to control; format: functional; details: NCI-H522, 48 h, read-out: GI
# [11] = Cytotoxicity against human COLO205 cells assessed as growth inhibition at 10 uM after 48 hrs by SRB assay relative to control; format: functional; details: COLO 205, 48 h, read-out: GI
# [12] = Cytotoxicity against human HCT116 cells assessed as growth inhibition at 10 uM after 48 hrs by SRB assay relative to control; format: functional; details: HCT-116, 48 h, read-out: GI
# [13] = Cytotoxicity against human HCT15 cells assessed as growth inhibition at 10 uM after 48 hrs by SRB assay relative to control; format: functional; details: HCT-15, 48 h, read-out: GI
# [14] = Cytotoxicity against human HT-29 cells assessed as growth inhibition at 10 uM after 48 hrs by SRB assay relative to control; format: functional; details: HT-29, 48 h, read-out: GI
# [15] = Cytotoxicity against human KM12 cells assessed as growth inhibition at 10 uM after 48 hrs by SRB assay relative to control; format: functional; details: KM12, 48 h, read-out: GI
# [16] = Cytotoxicity against human SW620 cells assessed as growth inhibition at 10 uM after 48 hrs by SRB assay relative to control; format: functional; details: SW-620, 48 h, read-out: GI
# [17] = Cytotoxicity against human SF268 cells assessed as growth inhibition at 10 uM after 48 hrs by SRB assay relative to control; format: functional; details: SF-268, 48 h, read-out: GI
# [18] = Cytotoxicity against human SF295 cells assessed as growth inhibition at 10 uM after 48 hrs by SRB assay relative to control; format: functional; details: SF-295, 48 h, read-out: GI
# [19] = Cytotoxicity against human SF539 cells assessed as growth inhibition at 10 uM after 48 hrs by SRB assay relative to control; format: functional; details: SF-539, 48 h, read-out: GI
# [20] = Cytotoxicity against human SNB75 cells assessed as growth inhibition at 10 uM after 48 hrs by SRB assay relative to control; format: functional; details: SNB-75, 48 h, read-out: GI
# [21] = Cytotoxicity against human U251 cells assessed as growth inhibition at 10 uM after 48 hrs by SRB assay relative to control; format: functional; details: U-251, 48 h, read-out: GI
# [22] = Cytotoxicity against human LOXIMVI cells assessed as growth inhibition at 10 uM after 48 hrs by SRB assay relative to control; format: functional; details: LOX IMVI, read-out: GI
# [23] = Cytotoxicity against human M14 cells assessed as growth inhibition at 10 uM after 48 hrs by SRB assay relative to control; format: functional; details: M14, 48 h, read-out: GI
# [24] = Cytotoxicity against human MDA-MB-435 cells assessed as growth inhibition at 10 uM after 48 hrs by SRB assay relative to control; format: functional; details: MDA-MB-435, 48 h, read-out: GI
# [25] = Cytotoxicity against human OVCAR3 cells assessed as growth inhibition at 10 uM after 48 hrs by SRB assay relative to control; format: functional; details: OVCAR-3, 48 h, read-out: GI
# [26] = Cytotoxicity against human OVCAR4 cells assessed as growth inhibition at 10 uM after 48 hrs by SRB assay relative to control; format: functional; details: OVCAR-4, 48 h, read-out: GI
# [27] = Cytotoxicity against human OVCAR5 cells assessed as growth inhibition at 10 uM after 48 hrs by SRB assay relative to control; format: functional; details: OVCAR-5, 48 h, read-out: GI
# [28] = Cytotoxicity against human 786-0 cells assessed as growth inhibition at 10 uM after 48 hrs by SRB assay relative to control; format: functional; details: 786-0, 48 h, read-out: GI
# [29] = Cytotoxicity against human A498 cells assessed as growth inhibition at 10 uM after 48 hrs by SRB assay relative to control; format: functional; details: A498, 48 h, read-out: GI
# [30] = Cytotoxicity against human ACHN cells assessed as growth inhibition at 10 uM after 48 hrs by SRB assay relative to control; format: functional; details: read-out: GI
# [31] = Cytotoxicity against human RXF393 cells assessed as growth inhibition at 10 uM after 48 hrs by SRB assay relative to control; format: functional; details: RXF 393, 48 h, read-out: GI
# [32] = Cytotoxicity against human TK10 cells assessed as growth inhibition at 10 uM after 48 hrs by SRB assay relative to control; format: functional; details: TK-10, 48 h, read-out: GI
# [33] = Cytotoxicity against human UO31 cells assessed as growth inhibition at 10 uM after 48 hrs by SRB assay relative to control; format: functional; details: UO-31, 48 h, read-out: GI
# [34] = Cytotoxicity against human MCF7 cells assessed as growth inhibition at 10 uM after 48 hrs by SRB assay relative to control; format: functional; details: MCF7, 48 h, read-out: GI
# [35] = Cytotoxicity against human MDA-MB-231 cells assessed as growth inhibition at 10 uM after 48 hrs by SRB assay relative to control; format: functional; details: MDA-MB-231, 48 h, read-out: GI
# [36] = Cytotoxicity against human Hs 578T cells assessed as growth inhibition at 10 uM after 48 hrs by SRB assay relative to control; format: functional; details: read-out: GI
# [37] = Cytotoxicity against human BT549 cells assessed as growth inhibition at 10 uM after 48 hrs by SRB assay relative to control; format: functional; details: BT-549, 48 h, read-out: GI
# [38] = Cytotoxicity against human T47D cells assessed as growth inhibition at 10 uM after 48 hrs by SRB assay relative to control; format: functional; details: read-out: GI
smiles,measurement,setting,value
COc1ccc(CN2c3ccccc3Sc3ccccc32)cc1O,inhibition,[1],64%
same,inhibition of growth at 10 µM,[2],92%
same,inhibition of growth at 10 µM,[3],79%
same,inhibition of growth at 10 µM,[4],86%
same,inhibition of growth at 10 µM,[5],63%
same,inhibition of growth at 10 µM,[6],64%
same,inhibition of growth at 10 µM,[7],63%
same,inhibition of growth at 10 µM,[8],67%
same,inhibition of growth at 10 µM,[9],90%
same,inhibition of growth at 10 µM,[10],100%
same,inhibition of growth at 10 µM,[11],100%
same,inhibition of growth at 10 µM,[12],87%
same,inhibition of growth at 10 µM,[13],67%
same,inhibition of growth at 10 µM,[14],91%
same,inhibition of growth at 10 µM,[15],82%
same,inhibition of growth at 10 µM,[16],69%
same,inhibition of growth at 10 µM,[17],54%
same,inhibition of growth at 10 µM,[18],96%
same,inhibition of growth at 10 µM,[19],100%
same,inhibition of growth at 10 µM,[20],73%
same,inhibition of growth at 10 µM,[21],82%
same,inhibition of growth at 10 µM,[22],57%
same,inhibition of growth at 10 µM,[23],86%
same,inhibition of growth at 10 µM,[24],99%
same,inhibition of growth at 10 µM,[25],93%
same,inhibition of growth at 10 µM,[26],54%
same,inhibition of growth at 10 µM,[27],14%
same,inhibition of growth at 10 µM,[28],57%
same,inhibition of growth at 10 µM,[29],24%
same,inhibition of growth at 10 µM,[30],58%
same,inhibition of growth at 10 µM,[31],100%
same,inhibition of growth at 10 µM,[32],42%
same,inhibition of growth at 10 µM,[33],76%
same,inhibition of growth at 10 µM,[34],74%
same,inhibition of growth at 10 µM,[35],59%
same,inhibition of growth at 10 µM,[36],67%
same,inhibition of growth at 10 µM,[37],45%
same,inhibition of growth at 10 µM,[38],73%
